Measured values: ChEMBL document CHEMBL2169838, “Synthesis and biological evaluation of the 1-arylpyrazole class of σ(1) receptor antagonists: identification of 4-{2-[5-methyl-1-(naphthalen-2-yl)-1H-pyrazol-3-yloxy]ethyl}morpholine (S1RA, E-52862)” (J Med Chem, 2012)
In brackets after ≈: the same amount, converted by molar mass.

What was measured:
[1] = Intrinsic clearance in human liver microsomes assessed as per mg of protein at 10 uM; assay type: ADME, Microsome; settings: read-out: CLH
Cytochrome P450 2E1 [2] = target: T1, Cytochrome P450 2E1 (Homo sapiens, UniProt P05181); experiment: Inhibition of CYP2E1 in human liver microsomes; assay type: ADME, Microsome
[3] = Lipophilicity, log D of the compound by PH-metrivc technique; assay type: physicochemical; settings: octanol/water
[4] = target: T2, 5-hydroxytryptamine receptor 2B (Homo sapiens, UniProt P41595); experiment: Antagonist activity at human 5HT2B receptor; assay type: functional
Cytochrome P450 2C9 [5] = target: T3, Cytochrome P450 2C9 (Homo sapiens, UniProt P11712); experiment: Inhibition of CYP2C9 in human liver microsomes; assay type: ADME, Microsome
Cytochrome P450 2C9 [6] = target: T3, Cytochrome P450 2C9; experiment: Inhibition of human recombinant CYP2C9; assay type: ADME
Cytochrome P450 2C8 [7] = target: T4, Cytochrome P450 2C8 (Homo sapiens, UniProt P10632); experiment: Inhibition of CYP2C8 in human liver microsomes; assay type: ADME, Microsome
T4 sequence (P10632 whole entry): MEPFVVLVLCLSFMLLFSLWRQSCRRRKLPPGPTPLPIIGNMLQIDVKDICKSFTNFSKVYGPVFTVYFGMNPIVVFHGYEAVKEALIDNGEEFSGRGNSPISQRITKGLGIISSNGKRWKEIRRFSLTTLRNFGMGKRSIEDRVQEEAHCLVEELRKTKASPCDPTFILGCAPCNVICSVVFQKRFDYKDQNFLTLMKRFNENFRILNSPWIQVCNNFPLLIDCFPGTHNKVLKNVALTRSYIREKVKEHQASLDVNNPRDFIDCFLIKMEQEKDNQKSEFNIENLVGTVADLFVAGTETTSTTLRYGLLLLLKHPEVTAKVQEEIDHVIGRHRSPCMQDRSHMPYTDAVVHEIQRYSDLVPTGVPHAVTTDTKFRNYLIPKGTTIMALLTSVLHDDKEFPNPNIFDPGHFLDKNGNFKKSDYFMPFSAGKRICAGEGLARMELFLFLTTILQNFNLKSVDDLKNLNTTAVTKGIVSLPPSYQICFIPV

Cytochrome P450 1A2 [8] = target: T5, Cytochrome P450 1A2 (Homo sapiens, UniProt P05177); experiment: Inhibition of CYP1A2 in human liver microsomes; assay type: ADME, Microsome
T5 sequence (P05177 whole entry): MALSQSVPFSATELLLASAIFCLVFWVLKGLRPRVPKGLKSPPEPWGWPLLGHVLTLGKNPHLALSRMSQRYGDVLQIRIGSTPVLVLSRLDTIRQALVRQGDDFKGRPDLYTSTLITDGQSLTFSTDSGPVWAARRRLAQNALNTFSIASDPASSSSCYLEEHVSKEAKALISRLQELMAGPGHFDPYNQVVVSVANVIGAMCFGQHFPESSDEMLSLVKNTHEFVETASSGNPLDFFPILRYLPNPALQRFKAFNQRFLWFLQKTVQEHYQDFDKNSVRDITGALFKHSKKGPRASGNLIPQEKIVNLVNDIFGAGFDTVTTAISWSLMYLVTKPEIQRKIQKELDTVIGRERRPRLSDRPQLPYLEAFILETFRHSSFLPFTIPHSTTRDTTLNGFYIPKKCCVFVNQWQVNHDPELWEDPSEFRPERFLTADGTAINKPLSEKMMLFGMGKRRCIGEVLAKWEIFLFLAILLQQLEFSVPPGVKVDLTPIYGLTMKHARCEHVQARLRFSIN

Mus musculus [9] = experiment: Inhibition of capsaicin-induced mechanical hypersensitivity in CD1 mouse assessed as paw withdrawal latency at 32 mg/kg, ip administered 15 mins prior to capsaicin challenge measured 30 mins post capsaicin challenge; assay type: functional; settings: route intraperitoneal
Cytochrome P450 2C8 [10] = target: T4, Cytochrome P450 2C8; experiment: Inhibition of human recombinant CYP2C8; assay type: ADME
Cytochrome P450 2C19 [11] = target: T6, Cytochrome P450 2C19 (Homo sapiens, UniProt P33261); experiment: Inhibition of CYP2C19 in human liver microsomes; assay type: ADME, Microsome
Mus musculus [12] = experiment: Antihyperalgesic activity in ip dosed CD1 mouse partial sciatic nerve ligation model assessed as inhibition of thermal hyperalgesia administered 45 mins by plantar test; assay type: functional
[13] = AUC in CD1 mouse at 10 mg/kg, po; assay type: ADME, organism-based; design: dose 10 mg/kg, route oral; settings: plasma
Cytochrome P450 2B6 [14] = target: T7, Cytochrome P450 2B6 (Homo sapiens, UniProt P20813); experiment: Inhibition of CYP2B6 in human liver microsomes; assay type: ADME, Microsome
T7 sequence (P20813 whole entry): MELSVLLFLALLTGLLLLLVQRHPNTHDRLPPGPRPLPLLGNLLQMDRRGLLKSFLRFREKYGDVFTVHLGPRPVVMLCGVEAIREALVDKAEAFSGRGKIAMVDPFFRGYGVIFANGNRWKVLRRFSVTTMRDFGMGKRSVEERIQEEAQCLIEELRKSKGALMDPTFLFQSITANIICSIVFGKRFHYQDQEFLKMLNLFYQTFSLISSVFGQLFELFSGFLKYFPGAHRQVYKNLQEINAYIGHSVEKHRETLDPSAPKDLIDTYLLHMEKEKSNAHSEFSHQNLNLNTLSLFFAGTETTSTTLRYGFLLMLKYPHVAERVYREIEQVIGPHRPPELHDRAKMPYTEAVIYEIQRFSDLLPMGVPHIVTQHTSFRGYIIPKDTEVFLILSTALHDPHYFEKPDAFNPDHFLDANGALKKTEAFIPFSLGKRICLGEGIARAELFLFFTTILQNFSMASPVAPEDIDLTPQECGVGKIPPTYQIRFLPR

[15] = target: T2, 5-hydroxytryptamine receptor 2B; experiment: Binding affinity to human 5HT2B receptor
Cytochrome P450 1A2 [16] = target: T5, Cytochrome P450 1A2; experiment: Inhibition of human recombinant CYP1A2; assay type: ADME
[17] = Binding affinity to rat sigma 2 receptor
Mus musculus [18] = experiment: Analgesic activity in CD1 mouse assessed as inhibition of capsaicin-induced mechanical hypersensitivity at 16 mg/kg, ip administered 15 mins prior to capsaicin challenge measured 30 mins post capsaicin challenge; assay type: functional; settings: route intraperitoneal
[19] = Thermodynamic solubility of the compound in phosphate buffer at pH 7.4; assay type: physicochemical; settings: read-out: Therm_solubility
[20] = Apparent permeability across human Caco2 cells at 10 uM after 2 hrs; assay type: ADME, cell-based; settings: Caco-2
Cytochrome P450 2D6 [21] = target: T8, Cytochrome P450 2D6 (Homo sapiens, UniProt P10635); experiment: Inhibition of human recombinant CYP2D6; assay type: ADME
Cytochrome P450 2C19 [22] = target: T6, Cytochrome P450 2C19; experiment: Inhibition of human recombinant CYP2C19; assay type: ADME
Cytochrome P450 2B6 [23] = target: T7, Cytochrome P450 2B6; experiment: Inhibition of human recombinant CYP2B6; assay type: ADME
[24] = Displacement of [3H]di-o-tolylguanidine from sigma 2 receptor in guinea pig brain membranes after 120 mins by scintillation counter; assay type: cell membranes, Cavia porcellus, Membrane
Mus musculus [25] = experiment: Neurotoxicity in CD1 mouse assessed as motor impairment at 32 to 64 mg/kg, ip measured after 30 to 180 mins by rotarod test; assay type: toxicity, organism-based; design: route intraperitoneal; settings: in vivo
Cytochrome P450 2D6 [26] = target: T8, Cytochrome P450 2D6; experiment: Inhibition of CYP2D6 in human liver microsomes; assay type: ADME, Microsome
Cytochrome P450 2E1 [27] = target: T1, Cytochrome P450 2E1; experiment: Inhibition of human recombinant CYP2E1; assay type: ADME
Mus musculus [28] = experiment: Antiallodynic activity in ip dosed CD1 mouse partial sciatic nerve ligation model assessed as inhibition of mechanical allodynia administered 30 mins by von Frey test; assay type: functional
[29] = Dissociation constant, pKa of the compound; assay type: physicochemical
[30] = Partition coefficient, log P of the compound by PH-metrivc technique; assay type: physicochemical; settings: octanol/water
Mus musculus [31] = experiment: Cmax in CD1 mouse at 10 mg/kg, po at 0.5 hrs; assay type: ADME, organism-based; design: dose 10 mg/kg, route oral; settings: in vivo

T8 sequence (P10635 whole entry): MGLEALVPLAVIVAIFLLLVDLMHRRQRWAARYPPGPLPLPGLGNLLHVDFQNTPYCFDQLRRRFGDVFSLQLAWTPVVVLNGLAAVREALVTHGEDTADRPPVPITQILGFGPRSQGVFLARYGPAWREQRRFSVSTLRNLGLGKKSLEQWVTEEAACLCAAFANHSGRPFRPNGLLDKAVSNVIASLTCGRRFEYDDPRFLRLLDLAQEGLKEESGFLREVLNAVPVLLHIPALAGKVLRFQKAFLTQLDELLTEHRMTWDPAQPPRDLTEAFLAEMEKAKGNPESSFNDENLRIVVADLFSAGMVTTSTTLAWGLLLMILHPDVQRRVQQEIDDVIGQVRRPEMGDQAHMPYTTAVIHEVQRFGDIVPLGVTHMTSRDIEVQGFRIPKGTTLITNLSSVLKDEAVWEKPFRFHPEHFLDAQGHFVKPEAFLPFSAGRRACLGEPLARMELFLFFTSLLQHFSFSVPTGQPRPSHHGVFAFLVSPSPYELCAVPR
T3 sequence (P11712 whole entry): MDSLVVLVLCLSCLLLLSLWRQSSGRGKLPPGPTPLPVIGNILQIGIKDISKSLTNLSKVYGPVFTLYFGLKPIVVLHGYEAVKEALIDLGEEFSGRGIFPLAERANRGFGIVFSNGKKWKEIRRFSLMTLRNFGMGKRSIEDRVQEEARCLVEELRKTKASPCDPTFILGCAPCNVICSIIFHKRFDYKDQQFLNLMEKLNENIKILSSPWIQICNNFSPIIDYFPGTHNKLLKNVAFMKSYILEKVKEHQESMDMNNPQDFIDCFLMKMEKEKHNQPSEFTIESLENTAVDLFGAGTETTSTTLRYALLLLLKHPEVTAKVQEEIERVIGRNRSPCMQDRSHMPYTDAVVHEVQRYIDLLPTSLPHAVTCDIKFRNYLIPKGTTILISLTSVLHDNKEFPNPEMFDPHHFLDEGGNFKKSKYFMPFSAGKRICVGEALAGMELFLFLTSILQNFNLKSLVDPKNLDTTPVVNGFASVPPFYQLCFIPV
T2 sequence (P41595 whole entry): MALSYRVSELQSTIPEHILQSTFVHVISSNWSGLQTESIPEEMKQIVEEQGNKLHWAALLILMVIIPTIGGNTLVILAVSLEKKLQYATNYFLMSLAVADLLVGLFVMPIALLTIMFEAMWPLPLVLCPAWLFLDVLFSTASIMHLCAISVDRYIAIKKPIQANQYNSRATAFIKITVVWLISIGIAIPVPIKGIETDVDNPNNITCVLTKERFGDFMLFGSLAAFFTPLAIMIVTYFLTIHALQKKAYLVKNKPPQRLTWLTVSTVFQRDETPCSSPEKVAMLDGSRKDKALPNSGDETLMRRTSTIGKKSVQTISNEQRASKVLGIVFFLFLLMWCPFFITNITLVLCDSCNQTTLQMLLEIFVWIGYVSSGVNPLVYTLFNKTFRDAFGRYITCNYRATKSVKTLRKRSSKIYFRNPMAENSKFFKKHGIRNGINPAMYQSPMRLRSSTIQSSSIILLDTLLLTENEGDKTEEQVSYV
T1 sequence (P05181 whole entry): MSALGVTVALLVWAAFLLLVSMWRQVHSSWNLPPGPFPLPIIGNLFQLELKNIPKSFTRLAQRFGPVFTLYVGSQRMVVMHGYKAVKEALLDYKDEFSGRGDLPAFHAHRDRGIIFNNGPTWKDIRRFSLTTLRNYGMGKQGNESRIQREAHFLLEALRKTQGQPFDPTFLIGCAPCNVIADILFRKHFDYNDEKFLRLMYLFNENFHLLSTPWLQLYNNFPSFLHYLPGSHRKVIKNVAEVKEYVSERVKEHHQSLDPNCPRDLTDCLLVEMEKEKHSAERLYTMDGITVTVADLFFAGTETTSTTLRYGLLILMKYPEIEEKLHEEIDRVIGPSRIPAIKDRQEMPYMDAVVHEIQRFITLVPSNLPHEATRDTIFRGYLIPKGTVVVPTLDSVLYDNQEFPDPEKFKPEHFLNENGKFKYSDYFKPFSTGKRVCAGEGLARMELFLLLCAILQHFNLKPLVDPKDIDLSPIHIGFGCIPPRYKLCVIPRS
T6 sequence (P33261 whole entry): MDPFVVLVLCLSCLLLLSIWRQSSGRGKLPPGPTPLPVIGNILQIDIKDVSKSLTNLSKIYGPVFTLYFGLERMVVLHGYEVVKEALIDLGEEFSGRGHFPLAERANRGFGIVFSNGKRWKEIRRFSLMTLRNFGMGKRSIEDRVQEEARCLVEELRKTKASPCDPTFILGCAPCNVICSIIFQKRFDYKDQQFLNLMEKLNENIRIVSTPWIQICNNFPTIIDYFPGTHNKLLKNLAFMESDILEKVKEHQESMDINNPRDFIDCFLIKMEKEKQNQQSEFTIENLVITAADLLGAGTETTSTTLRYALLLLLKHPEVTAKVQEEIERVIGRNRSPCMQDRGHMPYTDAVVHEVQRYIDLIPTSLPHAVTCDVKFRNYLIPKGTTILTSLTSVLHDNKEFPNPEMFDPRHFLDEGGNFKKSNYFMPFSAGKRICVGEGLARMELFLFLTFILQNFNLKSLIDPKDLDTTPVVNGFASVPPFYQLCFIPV

Cc1cc(OCCN2CCOCC2)nn1-c1ccc2ccccc2c1
microsomal CLint at 10 µM [1]: 3 µL/min/mg | IC50 (Cytochrome P450 2E1 [2]): > 10 µM | logD [3]: 3.4 | IC50 [4]: 4.7 µM | IC50 (Cytochrome P450 2C9 [5]): > 10 µM | IC50 (Cytochrome P450 2C9 [6]): > 10 µM | IC50 (Cytochrome P450 2C8 [7]): > 10 µM | IC50 (Cytochrome P450 1A2 [8]): > 10 µM | inhibition in vivo at 32 mg/kg (Mus musculus [9]): 62% | IC50 (Cytochrome P450 2C8 [10]): > 10 µM | IC50 (Cytochrome P450 2C19 [11]): > 10 µM | inhibition (Mus musculus [12]): Dose-dependent effect | ED50 (Mus musculus [12]; 0.75 h): 18.8 mg/kg | AUC [13]: 958 ng·h/mL | IC50 (Cytochrome P450 2B6 [14]): > 10 µM | Ki [15]: 0.328 µM | IC50 (Cytochrome P450 1A2 [16]): > 10 µM | Ki [17]: 9.3 µM | inhibition in vivo at 16 mg/kg (Mus musculus [18]): 43% | solubility thermodynamic [19]: 200 µg/mL (≈ 593 µM) | Papp at 2 h, 10 µM [20]: 37 ×10⁻⁶ cm/s | IC50 (Cytochrome P450 2D6 [21]): > 10 µM | IC50 (Cytochrome P450 2C19 [22]): > 10 µM | IC50 (Cytochrome P450 2B6 [23]): > 10 µM | Ki [24]: > 1 µM | Activity (Mus musculus [25]): Non-toxic | IC50 (Cytochrome P450 2D6 [26]): > 10 µM | IC50 (Cytochrome P450 2E1 [27]): > 10 µM | inhibition (Mus musculus [28]): Dose-dependent effect | ED50 (Mus musculus [28]; 0.5 h): 23.4 mg/kg | pKa [29]: 6.5 | logP [30]: 3.5 | Cmax (Mus musculus [31]): 62 ng/mL
